Our source for the EC50 values is patent US20250034170A1, “SMALL MOLECULE MODULATORS OF GLUCOCEREBROSIDASE ACTIVITY AND USES THEREOF” (Vanqua Bio, Inc., priority 2021, published 2025).

SMILES strings stand for the structures.

One experiment has as its target T1, GCase (Homo sapiens, UniProt P04062).
T1 construct: endogenous in cells; host or cells: HeLa cells
T1 sequence (P04062 40-536): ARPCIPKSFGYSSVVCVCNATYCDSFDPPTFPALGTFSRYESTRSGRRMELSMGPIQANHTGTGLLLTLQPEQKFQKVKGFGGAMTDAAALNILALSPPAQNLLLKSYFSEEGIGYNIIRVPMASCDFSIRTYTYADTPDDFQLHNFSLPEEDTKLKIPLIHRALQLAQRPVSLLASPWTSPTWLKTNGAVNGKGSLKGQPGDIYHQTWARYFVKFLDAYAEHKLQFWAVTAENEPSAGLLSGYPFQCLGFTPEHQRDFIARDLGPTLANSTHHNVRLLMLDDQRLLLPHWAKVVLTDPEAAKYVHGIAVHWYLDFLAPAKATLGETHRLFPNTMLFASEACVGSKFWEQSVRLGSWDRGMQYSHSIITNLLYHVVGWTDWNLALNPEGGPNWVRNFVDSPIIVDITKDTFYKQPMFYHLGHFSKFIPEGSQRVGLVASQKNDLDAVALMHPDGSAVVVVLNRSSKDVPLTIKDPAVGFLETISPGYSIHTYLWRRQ
Description: activation of GCase in a live cell PFB assay in HELA cells. The format is cell-based. As to conditions: EC50 given as range classes. As for the experimental part: Exemplary compounds were evaluated for activation of GCase in a live cell PFB assay in HELA cells (essentially as described in Ysselstein et al., “LRRK2 kinase activity regulates lysosomal glucocerebrosidase in neurons derived from Parkinson's disease patients” Nature Communications (2019) 10:5570). […] EC50 ranges: A: <10 μM; B: >10-50 μM; C: >50-100 μM; D: >100 μM.
For the compound `Cc1nc(N2CCC3(C2)CN(c2cnc4c(C)nn(CC(F)F)c4n2)C3)cc(C(F)(F)F)n1` [Cmpd 578], the EC50 (as a rule, the concentration at which the effect is half-maximal) was 10 to 50 µM. The compound `Cc1nc(N2CCC3(CC2)CCN(c2cnc4cnn(CC(F)F)c4n2)C3)cc(C(F)(F)F)n1` [Cmpd 579] registered an EC50 of 10 to 50 µM.

In turn, `Cc1nc(N2CCC3(CC2)CCN(c2cnc4cnn(CC(F)(F)F)c4n2)C3)cc(C(F)(F)F)n1` [Cmpd 580] yielded an EC50 of 10 to 50 µM. Turning to `Cc1nc(N2CCC3(CC2)CCN(c2ncc4cnn(CC(F)F)c4n2)C3)cc(C(F)(F)F)n1` [Cmpd 581], the EC50 fell in the range of 10 to 50 µM. The same measure, in the same setting: the value for `Cc1nc(N2CCC3(CC2)CCN(c2cnc4c(C)nn(CC(F)F)c4n2)C3)cc(C(F)(F)F)n1` [Cmpd 582] was 10 to 50 µM. On the same count and under the same terms, with `Cc1nc(N2CCC3(CC2)CCN(c2cnc4cnn(C5COC5)c4n2)C3)cc(C(F)(F)F)n1` [Cmpd 583] the figure was above 100 µM; with `Cc1nc(N2CCC3(CC2)CN(c2cnc4cnn(C5COC5)c4n2)C3)cc(C(F)(F)F)n1` [Cmpd 584], 10 to 50 µM.

On to `Cc1nc(N2CCC3(CC2)CN(c2cnc4c(C)nn(CC(F)F)c4n2)C3)cc(C(F)(F)F)n1` [Cmpd 585], for which the EC50 was below 10 µM. The compound `Cc1nc(N2CCC3(CC2)CN(c2ncc4cnn(CC(F)F)c4n2)C3)cc(C(F)(F)F)n1` [Cmpd 586] displayed an EC50 of 10 to 50 µM. `Cc1nc(N2CCC3(CC2)CN(c2cnc4cnn(CC(F)(F)F)c4n2)C3)cc(C(F)(F)F)n1` [Cmpd 587] showed an EC50 of 10 to 50 µM. The same measure, in the same setting: the value for `Cc1nc(N2CCC3(CC2)CN(c2cnc4cnn(CC(F)F)c4n2)C3)cc(C(F)(F)F)n1` [Cmpd 588] was below 10 µM; that for `Cc1nc(N2CC3(CCN(c4ncc5cnn(C6COC6)c5n4)C3)C2)cc(C(F)(F)F)n1` [Cmpd 589] was 10 to 50 µM; that for `Cc1cc(N2CC3(CCN(c4ncc5cnn(C6COC6)c5n4)C3)C2)nc(C(F)(F)F)n1` [Cmpd 590] was 10 to 50 µM. As for `Cc1ncc(N2CC3(CCN(c4ncc5c(C)nn(CC(F)F)c5n4)C3)C2)c(C(F)(F)F)n1` [Cmpd 591], the EC50 was below 10 µM. `Cc1ncc(N2CC3(CCN(c4cnc5cnn(CC(F)F)c5n4)C3)C2)c(C(F)(F)F)n1` [Cmpd 592] registered an EC50 above 100 µM. The same measure, in the same setting: with `Cc1ncc(N2CC3(CCN(c4cnc5c(C)nn(CC(F)F)c5n4)C3)C2)c(C(F)(F)F)n1` [Cmpd 593] the figure was above 100 µM. Still for that read-out and setting: with `Cc1ncc(N2CC3(CCN(c4cnc5cnn(CC(F)(F)F)c5n4)C3)C2)c(C(F)(F)F)n1` [Cmpd 594] the figure was above 100 µM; with `Cc1ncc(N2CC3(CCN(c4ncc5cnn(CC(F)F)c5n4)C3)C2)c(C(F)(F)F)n1` [Cmpd 595], below 10 µM. Still for that read-out and setting: the value for `Cc1ncc(N2CC3(CCN(c4ncc5cnn(CC(F)(F)F)c5n4)C3)C2)c(C(F)(F)F)n1` [Cmpd 596] was below 10 µM; that for `Cc1ncc(N2CC3(CCN(c4cnc5cnn(C6COC6)c5n4)C3)C2)c(C(F)(F)F)n1` [Cmpd 597] was above 100 µM; that for `Cc1ncc(N2CC3(CCN(c4ncc5cnn(C6COC6)c5n4)C3)C2)c(C(F)(F)F)n1` [Cmpd 598] was 10 to 50 µM.

The compound `Cc1ncc(N2CC3(CCN(c4cnc5c(C)nn(C6COC6)c5n4)C3)C2)c(C(F)(F)F)n1` [Cmpd 599] yielded an EC50 of 10 to 50 µM. Take `Cc1ncc(N2CC3(CCN(c4ncc5c(C)nn(C6COC6)c5n4)C3)C2)c(C(F)(F)F)n1` [Cmpd 600]: the EC50 lay within 50 to 100 µM. Same read-out and setting: the value for `Cc1ncc(N2CCC3(CCN(c4cnc5cnn(CC(F)F)c5n4)CC3)C2)c(C(F)(F)F)n1` [Cmpd 601] was below 10 µM; that for `Cc1ncc(N2CCC3(CCN(c4cnc5c(C)nn(CC(F)F)c5n4)CC3)C2)c(C(F)(F)F)n1` [Cmpd 602] was 10 to 50 µM.

In the case of `Cc1nn(CC(F)(F)F)c2nc(N3CCC4(CCN(c5cnc(C(F)(F)F)nc5)C4)C3)cnc12` (stereo not drawn) [Cmpd 603], the EC50 lay in the range of 10 to 50 µM. `Cc1nc(N2CCC3(CCN(c4cnc5c(C)nn(CC(F)(F)F)c5n4)C3)C2)cc(C(F)(F)F)n1` (stereo not drawn) [Cmpd 604] showed an EC50 above 100 µM.

Compound `Cc1nn(CC(F)(F)F)c2nc(N3CCC4(CN(c5cnc(C(F)(F)F)nc5)C4)C3)cnc12` [Cmpd 605] showed an EC50 above 100 µM.

Staying with this experiment, now noted: activation of GCase, EC50 ranges.
The compound `Cc1nc(N2CCC3(CCN(c4cnc5c(C)nn(C6COC6)c5n4)C3)C2)cc(C(F)(F)F)n1` (stereo not drawn) [Cmpd 543] had an EC50 of 10 to 50 µM. Still for that read-out and setting: with `Cc1nc(N2CCC3(CCN(c4ncc5c(C)nn(C6COC6)c5n4)C3)C2)cc(C(F)(F)F)n1` (stereo not drawn) [Cmpd 544] the figure was 10 to 50 µM; with `Cc1nc(N2CCC3(CCN(c4ncc5cnn(C6COC6)c5n4)C3)C2)cc(C(F)(F)F)n1` (stereo not drawn) [Cmpd 545], above 100 µM. On the same count and under the same terms, with `FC(F)Cn1ncc2cnc(N3CCC4(CCN(c5cnc(C(F)(F)F)nc5)C4)C3)nc21` (stereo not drawn) [Cmpd 546] the figure was 10 to 50 µM; with `Cc1nn(CC(F)F)c2nc(N3CCC4(CCN(c5cnc(C(F)(F)F)nc5)C4)C3)ncc12` (stereo not drawn) [Cmpd 547], 10 to 50 µM; with `Cc1nc(N2CCC3(CCN(c4ncc5cnn(CC(F)(F)F)c5n4)C3)C2)cc(C(F)(F)F)n1` (stereo not drawn) [Cmpd 548], above 100 µM. Same read-out and setting: the value for `Cc1nc(N2CCC3(CCN(c4cnc5c(C)nn(C6COC6)c5n4)CC3)C2)cc(C(F)(F)F)n1` [Cmpd 549] was above 100 µM. With `Cc1nc(N2CCC3(CCN(c4ncc5c(C)nn(C6COC6)c5n4)CC3)C2)cc(C(F)(F)F)n1` [Cmpd 550], the EC50 was above 100 µM.

On to `Cc1nc(N2CCC3(C2)CN(c2cnc4cnn(CC(F)F)c4n2)C3)cc(C(F)(F)F)n1` [Cmpd 551], for which the EC50 is below 10 µM. In the case of `Cc1nc(N2CCC3(C2)CN(c2cnc4cnn(CC(F)(F)F)c4n2)C3)cc(C(F)(F)F)n1` [Cmpd 552], the EC50 is below 10 µM. For `Cc1nc(N2CCC3(C2)CN(c2ncc4cnn(CC(F)F)c4n2)C3)cc(C(F)(F)F)n1` [Cmpd 553], the EC50 lay in the range of 10 to 50 µM. In the case of `Cc1nc(N2CCC3(C2)CN(c2ncc4cnn(CC(F)(F)F)c4n2)C3)cc(C(F)(F)F)n1` [Cmpd 554], the EC50 was in the range of 10 to 50 µM.

`Cc1nc(N2CCC3(C2)CN(c2cnc4cnn(C5COC5)c4n2)C3)cc(C(F)(F)F)n1` [Cmpd 555] gave an EC50 below 10 µM. Consider `Cc1nc(N2CCC3(C2)CN(c2cnc4c(C)nn(C5COC5)c4n2)C3)cc(C(F)(F)F)n1` [Cmpd 556], for which the half-maximal effective concentration (EC50) fell in the range of 10 to 50 µM. In turn, `Cc1nc(N2CCC3(C2)CN(c2ncc4cnn(C5COC5)c4n2)C3)cc(C(F)(F)F)n1` [Cmpd 557] returned an EC50 of 10 to 50 µM.

`Cc1nc(N2CCC3(C2)CN(c2ncc4c(C)nn(C5COC5)c4n2)C3)cc(C(F)(F)F)n1` [Cmpd 558] displayed an EC50 below 10 µM.

`CC(C)c1ncc(N2CC3(CCN(c4cnc5cnn(CC(F)F)c5n4)C3)C2)cn1` [Cmpd 559] showed an EC50 of 10 to 50 µM. Regarding `FC(F)Cn1ncc2ncc(N3CCC4(CN(c5cnc(C6CC6)nc5)C4)C3)nc21` [Cmpd 560], the EC50 is 10 to 50 µM. On the same count and under the same terms, with `Cc1ncc(N2CC3(CCN(c4cnc5cnn(CC(F)F)c5n4)CC3)C2)c(C(F)(F)F)n1` [Cmpd 561] the figure was 10 to 50 µM. Still for that read-out and setting: the value for `Cc1nc(N2CC3(CCN(c4ncc5cnn(C6COC6)c5n4)CC3)C2)cc(C(F)(F)F)n1` [Cmpd 562] was 10 to 50 µM. Same read-out and setting: the value for `Cc1nc(N2CC3(CCN(c4cnc5cnn(C6COC6)c5n4)CC3)C2)cc(C(F)(F)F)n1` [Cmpd 563] was above 100 µM; that for `Cc1nc(N2CC3(CCN(c4ncc5cnn(CC(F)F)c5n4)CC3)C2)cc(C(F)(F)F)n1` [Cmpd 564] was below 10 µM; that for `Cc1nc(N2CC3(CCN(c4cnc5c(C)nn(C6COC6)c5n4)CC3)C2)cc(C(F)(F)F)n1` [Cmpd 565] was 10 to 50 µM.

`Cc1nc(N2CC3(CCN(c4ncc5cnn(CC(F)(F)F)c5n4)CC3)C2)cc(C(F)(F)F)n1` [Cmpd 566] returned an EC50 below 10 µM. Still for that read-out and setting: with `Cc1nc(N2CC3(CCN(c4cnc5cnn(CC(F)(F)F)c5n4)CC3)C2)cc(C(F)(F)F)n1` [Cmpd 567] the figure was below 10 µM; with `Cc1nc(N2CC3(CCN(c4cnc5c(C)nn(CC(F)F)c5n4)CC3)C2)cc(C(F)(F)F)n1` [Cmpd 568], below 10 µM; with `Cc1nc(N2CC3(CCN(c4ncc5c(C)nn(CC(F)F)c5n4)CC3)C2)cc(C(F)(F)F)n1` [Cmpd 569], 10 to 50 µM. Compound `Cc1nc(N2CC3(CCN(c4ncc5c(C)nn(C6COC6)c5n4)CC3)C2)cc(C(F)(F)F)n1` [Cmpd 570] gave an EC50 of 10 to 50 µM. The same measure, in the same setting: with `Cc1nc(N2CCC3(CCN(c4cnc5cnn(CC(F)(F)F)c5n4)CC3)C2)cc(C(F)(F)F)n1` [Cmpd 571] the figure was 10 to 50 µM; with `Cc1nc(N2CCC3(CCN(c4ncc5cnn(CC(F)(F)F)c5n4)CC3)C2)cc(C(F)(F)F)n1` [Cmpd 572], below 10 µM; with `Cc1nc(N2CCC3(CCN(c4ncc5cnn(C6COC6)c5n4)CC3)C2)cc(C(F)(F)F)n1` [Cmpd 573], above 100 µM. Regarding `Cc1nc(N2CCC3(CCN(c4cnc5cnn(C6COC6)c5n4)CC3)C2)cc(C(F)(F)F)n1` [Cmpd 574], the EC50 lay in the range of 10 to 50 µM.

The compound `Cc1nc(N2CCC3(CCN(c4cnc5c(C)nn(CC(F)F)c5n4)CC3)C2)cc(C(F)(F)F)n1` [Cmpd 575] came in with an EC50 above 100 µM. Still for that read-out and setting: with `Cc1nc(N2CCC3(CCN(c4ncc5c(C)nn(CC(F)F)c5n4)CC3)C2)cc(C(F)(F)F)n1` [Cmpd 576] the figure was 10 to 50 µM; with `Cc1nc(N2CCC3(C2)CN(c2ncc4c(C)nn(CC(F)F)c4n2)C3)cc(C(F)(F)F)n1` [Cmpd 577], 10 to 50 µM.
